According to the NIST ThermoML archive (doi:10.1016/j.tca.2015.03.026):
Several values for one entry are separate records, joined by “and”; a condition that tells them apart may be missing. Identical values can stand only once.

Columns and labels:
[1] = Molar enthalpy of transition or fusion; conditions: Crystal; DSC
[2] = for Normal melting temperature: DTA

COc1ccccc1C(=O)O [2-methoxybenzoic acid]
Conditions | Molar enthalpy of transition or fusion [kcal/mol]
[1] | 5.71

[2]
Conditions | vapor or sublimation pressure
318.25 K, Crystal, Closed cell (Static) method | 6.16e-05 kPa
320.73 K, Crystal, Closed cell (Static) method | 8.28e-05 kPa
323.21 K, Crystal, Closed cell (Static) method | 0.0001133 kPa
325.68 K, Crystal, Closed cell (Static) method | 0.0001504 kPa
328.17 K, Crystal, Closed cell (Static) method | 0.0002043 kPa
330.65 K, Crystal, Closed cell (Static) method | 0.0002676 kPa
333.12 K, Crystal, Closed cell (Static) method | 0.0003567 kPa
335.61 K, Crystal, Closed cell (Static) method | 0.0004802 kPa
335.62 K, Crystal, Closed cell (Static) method | 0.0004752 kPa
338.08 K, Crystal, Closed cell (Static) method | 0.0006182 kPa
340.58 K, Crystal, Closed cell (Static) method | 0.000822 kPa and 0.0008262 kPa
343.05 K, Crystal, Closed cell (Static) method | 0.001076 kPa
344.3 K, Crystal, Transpiration method | 0.00121 kPa
345.3 K, Crystal, Transpiration method | 0.00133 kPa
345.4 K, Crystal, Transpiration method | 0.00133 kPa
345.54 K, Crystal, Closed cell (Static) method | 0.001402 kPa
346.4 K, Crystal, Transpiration method | 0.0015 kPa
347.2 K, Crystal, Transpiration method | 0.00163 kPa
347.4 K, Crystal, Transpiration method | 0.00164 kPa
348.02 K, Crystal, Closed cell (Static) method | 0.001813 kPa
348.34 K, Crystal, Closed cell (Static) method | 0.001883 kPa
348.4 K, Crystal, Transpiration method | 0.00179 kPa
349.2 K, Crystal, Transpiration method | 0.00196 kPa
350.4 K, Crystal, Transpiration method | 0.0023 kPa
350.5 K, Crystal, Closed cell (Static) method | 0.002351 kPa
350.82 K, Crystal, Closed cell (Static) method | 0.002438 kPa
352.4 K, Crystal, Transpiration method | 0.00275 kPa
353.3 K, Crystal, Closed cell (Static) method | 0.003074 kPa
353.5 K, Crystal, Transpiration method | 0.00317 kPa
354.5 K, Crystal, Transpiration method | 0.00349 kPa
355.5 K, Crystal, Transpiration method | 0.00377 kPa
355.78 K, Crystal, Closed cell (Static) method | 0.003984 kPa
356.5 K, Crystal, Transpiration method | 0.00408 kPa
357.6 K, Crystal, Transpiration method | 0.00472 kPa
358.26 K, Crystal, Closed cell (Static) method | 0.005029 kPa
358.4 K, Crystal, Transpiration method | 0.00508 kPa
359.5 K, Crystal, Transpiration method | 0.00566 kPa
360.5 K, Crystal, Transpiration method | 0.00637 kPa
360.75 K, Crystal, Closed cell (Static) method | 0.006481 kPa
361.6 K, Crystal, Transpiration method | 0.00677 kPa
362.5 K, Crystal, Transpiration method | 0.00755 kPa
363.23 K, Crystal, Closed cell (Static) method | 0.008104 kPa
363.6 K, Crystal, Transpiration method | 0.00827 kPa
364.5 K, Crystal, Transpiration method | 0.00908 kPa
365.71 K, Crystal, Closed cell (Static) method | 0.01039 kPa
366.4 K, Crystal, Transpiration method | 0.0107 kPa
366.6 K, Crystal, Transpiration method | 0.01098 kPa
368.19 K, Crystal, Closed cell (Static) method | 0.01325 kPa
368.6 K, Crystal, Transpiration method | 0.01323 kPa
369.6 K, Crystal, Transpiration method | 0.01454 kPa
378.32 K, Liquid, Closed cell (Static) method | 0.0318 kPa
378.33 K, Liquid, Closed cell (Static) method | 0.0318 kPa
380.81 K, Liquid, Closed cell (Static) method | 0.0371 kPa
380.82 K, Liquid, Closed cell (Static) method | 0.0371 kPa
383.29 K, Liquid, Closed cell (Static) method | 0.0435 kPa
383.32 K, Liquid, Closed cell (Static) method | 0.0435 kPa
385.78 K, Liquid, Closed cell (Static) method | 0.0507 kPa and 0.0504 kPa
388.26 K, Liquid, Closed cell (Static) method | 0.0588 kPa
388.29 K, Liquid, Closed cell (Static) method | 0.0585 kPa
390.97 K, Liquid, Closed cell (Static) method | 0.0691 kPa
390.98 K, Liquid, Closed cell (Static) method | 0.0695 kPa
393.47 K, Liquid, Closed cell (Static) method | 0.0797 kPa and 0.0801 kPa
395.94 K, Liquid, Closed cell (Static) method | 0.0929 kPa
395.95 K, Liquid, Closed cell (Static) method | 0.0933 kPa
398.44 K, Liquid, Closed cell (Static) method | 0.1072 kPa and 0.1071 kPa
400.91 K, Liquid, Closed cell (Static) method | 0.1239 kPa
400.94 K, Liquid, Closed cell (Static) method | 0.1244 kPa
403.41 K, Liquid, Closed cell (Static) method | 0.1413 kPa
403.44 K, Liquid, Closed cell (Static) method | 0.1428 kPa
405.88 K, Liquid, Closed cell (Static) method | 0.1621 kPa
405.89 K, Liquid, Closed cell (Static) method | 0.1621 kPa
408.38 K, Liquid, Closed cell (Static) method | 0.1849 kPa
408.39 K, Liquid, Closed cell (Static) method | 0.1865 kPa
410.85 K, Liquid, Closed cell (Static) method | 0.2113 kPa
410.87 K, Liquid, Closed cell (Static) method | 0.2131 kPa
413.34 K, Liquid, Closed cell (Static) method | 0.2389 kPa
413.38 K, Liquid, Closed cell (Static) method | 0.242 kPa

Conditions | Normal melting temperature [°C]
[2], Crystal | 101.6

COc1cccc(C(=O)O)c1 [3-methoxybenzoic acid]
Conditions | Molar enthalpy of transition or fusion [kcal/mol]
[1] | 5.23

Conditions | Normal melting temperature [°C]
[2], Crystal | 109.0

O=C(O)c1ccccc1 [benzoic acid]
[2], Crystal
Conditions | vapor or sublimation pressure [kPa]
297.67 K, Closed cell (Static) method | 0.000108
299.96 K, Closed cell (Static) method | 0.000142
300.03 K, Closed cell (Static) method | 0.000143
302.51 K, Closed cell (Static) method | 0.000193
304.75 K, Closed cell (Static) method | 0.00025
307.27 K, Closed cell (Static) method | 0.000335
309.63 K, Closed cell (Static) method | 0.000436
312.08 K, Closed cell (Static) method | 0.000573
314.4 K, Closed cell (Static) method | 0.000738
314.59 K, Closed cell (Static) method | 0.000754
316.3 K, Transpiration method | 0.00095
316.91 K, Closed cell (Static) method | 0.000969
319.48 K, Closed cell (Static) method | 0.00127
320.4 K, Transpiration method | 0.00147
321.91 K, Closed cell (Static) method | 0.00164
324 K, Transpiration method | 0.00214
324.39 K, Closed cell (Static) method | 0.00212
326.76 K, Closed cell (Static) method | 0.00268
327.4 K, Transpiration method | 0.00302
329.2 K, Closed cell (Static) method | 0.00343
331.62 K, Closed cell (Static) method | 0.00436
332.4 K, Transpiration method | 0.00495
334.07 K, Closed cell (Static) method | 0.00554
336.46 K, Closed cell (Static) method | 0.00693
337.4 K, Transpiration method | 0.00809
338.98 K, Closed cell (Static) method | 0.00873
342.3 K, Transpiration method | 0.01272
347.3 K, Transpiration method | 0.01965
352.4 K, Transpiration method | 0.03114
357.4 K, Transpiration method | 0.04619
362.5 K, Transpiration method | 0.06987
367.5 K, Transpiration method | 0.1076

Cc1ccc(C(=O)O)cc1 [4-methylbenzoic acid]
Conditions | Molar enthalpy of transition or fusion [kcal/mol]
[1] | 5.33

[2], Crystal, Transpiration method
Conditions | vapor or sublimation pressure [kPa]
340.4 K | 0.00123
343.3 K | 0.00162
348.5 K | 0.00271
356.7 K | 0.00558
359.3 K | 0.00715
363.9 K | 0.01097
368.5 K | 0.01623
373.7 K | 0.02473
374.4 K | 0.02687
378.8 K | 0.03813
380.1 K | 0.04273
384.4 K | 0.05807
389.2 K | 0.08453
394 K | 0.1213
398.8 K | 0.1748

Conditions | Normal melting temperature [°C]
[2], Crystal | 180.2

Cc1ccccc1C(=O)O [2-methylbenzoic acid]
[2], Crystal, Transpiration method
Conditions | vapor or sublimation pressure [kPa]
331.2 K | 0.0028
335.2 K | 0.00421
341.2 K | 0.00767
345.2 K | 0.0112
348.2 K | 0.01564
351.2 K | 0.01962
355.4 K | 0.02895
358.6 K | 0.0389
358.7 K | 0.03932
361.2 K | 0.05138
364.2 K | 0.06664
367.4 K | 0.08391
373 K | 0.1339

COc1ccc(C(=O)O)cc1 [4-methoxybenzoic acid]
[2], Crystal, Transpiration method
Conditions | vapor or sublimation pressure [kPa]
363.3 K | 0.00117
368.2 K | 0.0019
374.9 K | 0.00353
383.2 K | 0.00753
384.5 K | 0.0085
388.3 K | 0.01217
391.1 K | 0.01556
394.2 K | 0.01971
397.2 K | 0.0267
400.3 K | 0.03247
403.4 K | 0.04422
406.2 K | 0.05311
